Data on two molecules can be found in publication PMC7031302, “Design and synthesis of new energy restriction mimetic agents: Potent anti-tumor activities of hybrid motifs of aminothiazoles and coumarins” (Scientific Reports, 2020).

Like-named read-outs stand apart in the source and are kept apart here.

Type in all cases: cell-based, Human
For assay [1], the system named is HCT116. Kind of assay: MTT cell viability, HCT116. As to conditions: 72 h, MTT assay, mean ± SD (n = 6), read-out: half-maximal inhibitory concentration (IC50) HCT116. The method, then:
The potential cytotoxicity of 24 candidate compounds was initially evaluated at a single concentration level (5 μM). Then a full dose-response curve was plotted for each compound against different colorectal cancer cell lines (HCT116 and HT-29) by MTT assay after 72 h treatments. 4-hydroxycoumarin, OSU-CG5, and OSU-CG12 were used as positive controls. […] Compounds 9b, 9c, 9f, 9i, 11b, and 11c were selected for further studies to determine the full dose-response survival curves using different concentrations (0.1–20 µM) against CRC cell lines and normal fibroblast cell line (F180) at different time points (Fig. 2A–2F and supplementary material Page S63 and S64).
Human colorectal carcinoma cell lines (HCT116) and (HT-29) were obtained from the European Collection of Cell Cultures (ECACC, UK). The cell lines were cultured in Roswell Park Memorial Institute medium (RPMI-1640, Sigma-Aldrich-St. Louis, MO, USA) supplemented with 10% fetal bovine serum (Sigma-Aldrich-St. Louis, MO, USA) and 1% penicillin/streptomycin (Sigma-Aldrich- Louis, MO, USA). F180 cell line (Human Normal Fibroblast), was kindly given by professor Ekkehard Dikomey (University Cancer Center, Hamburg University, Hamburg, Germany) and were cultured in Dulbecco’s Modified Eagle’s medium (DMEM, Sigma-Aldrich-St. Louis, MO, USA) supplemented with 10% fetal bovine serum (Sigma-Aldrich-St. Louis, MO, USA) and 1% penicillin/streptomycin (Sigma-Aldrich- Louis, MO, USA). All cell incubations were done at 37 °C in a humidified atmosphere of 5% CO2.
Cell viability was assessed using, 3-(4,5-dimethylthiazol-2-yl)-2,5-diphenyltetrazolium bromide (MTT) assay as previously described. In summary, cancer cell lines or F180 were seeded in complete medium at the density of 3 × 10^3/well and 5 × 10^3/well respectively in 96 well flat-bottom plates. After 24 h, cells were incubated with the candidate compounds at the indicated concentration for (24, 48 or 72 h). DMSO was used as vehicle control and 4-Hydroxycoumarin was purchased from (Sigma-Aldrich, St. Louis, MO, USA) and Cisplatin from Hospira UK Ltd. At the end of treatment, the media were aspirated from each well and incubated with 200 µL of MTT tetrazolium dye (Sigma-Aldrich, St. Louis, MO, USA) at a final concentration of 0.5 mg/ml for 2 h at 37 °C. The reduced MTT crystals were solubilized in 200 µl/well of DMSO and the absorbance was measured at 570 nm using a microplate reader (Thermo-Scientific, Vantaa, Finland).

For assay [2], the system named is HCT116. As to the kind of experiment: Western blot analysis, HCT116. As to conditions: for expression of LC3A-II and LC3B-II: HCT116 (CRC cell lines). Here is the method:
(§1) Based on this, the energy restriction mediated anticancer activity of the new coumarin tagged aminothiazole derivatives was investigated. The expression levels of PARP, p-Akt, Akt, p-AMPK, AMPK, β-TrCP, LC3A/B-I, LC3A/B-II, caspase-3, cyclin D1, and Bcl-2 proteins were determined by Western blot analysis after 72 h treatment of HT-29 and HCT116 at different concentrations based on the IC50 values of each compound (Fig. 3A,B). […] Moreover, the treatment with 9b and 9f induced caspase 3/7 activation, which was detected by caspase 3/7 activity assay and confirmed by Western blot. The activation of caspases was significant in 9b in both cell lines and significant with 9f in HCT116 cells only and minimal in HT-29 cells (Fig. 3C,D). On the other hand, both 9b and 9f induced dose-dependent proteolytic processing of PARP. […] Besides, the protein expression level of the anti-apoptotic protein, Bcl-2, was reduced in HCT116 upon treatment with both compounds.
Following 72 h of treatment, cells were lysed and the extracted proteins were quantified using DC protein assay kit (Bio-Rad, Hercules, CA, USA) following the manufacturer’s instructions. Proteins were resolved on 8% or 12% SDS-poly-acrylamide gels, then transferred onto a nitrocellulose membrane using a semi-dry transfer cell. The membranes were blocked in TBS-T containing 5% non-fat milk for 1 h and incubated overnight at 4 °C overnight with indicated primary antibodies (Cell Signaling Technologies, Beverly, MA, USA) and then incubated with goat anti-mouse or anti-rabbit secondary antibody (Cell Signaling Technologies, Beverly, MA, USA) for 1 h at room temperature. Detection was done using chemiluminescence substrate (Bio-Rad, Hercules, CA, USA). β-actin (Cell Signaling Technologies, Beverly, MA, USA) was used as a loading control.
The blots were captured with ChemiDoc Imaging System (Bio-Rad, Hercules, CA, USA) and bands were visualized with the Image Lab v5.2.1 software (Bio-Rad, Hercules, CA, USA).

Assay [3] has as its system Caspase 3/7 activities in HCT116 cells. As to the kind of experiment: Caspase 3/7 activity assay, HCT116. As to conditions: HCT116, 72 h. The method, then: as §1
Caspase-3/7 activities in HT-29 and HCT116 cells treated with candidate compounds were measured using Caspase-Glo 3/7 assay kit (Promega, Madison, WI, USA) following the manufacturer’s instructions. […] 50 µL of lysate and 50 µL of caspase substrate were added to a white opaque 96-well plate, and the luminescence was measured by Varioskan Flash multimode reader (Thermo-Scientific, Vantaa, Finland)

For assay [4], the system named is HCT116. As to the kind of experiment: Glucose uptake assay, HCT116. As to conditions: HCT116, 16 h treatment, dose-dependent. An excerpt: According to previous studies, ERMAs inhibited glucose utilization in cancer cells[13],[19]. Therefore, we investigated glucose uptake (Fig. 5A) upon treatment with 9b and 9f in HT-29 and HCT116 cells at different concentrations based on the IC50 of each compound. […] This effect is known to result in the accumulation of reactive oxygen species (ROS) and could play a role in glucose deprivation-induced cytotoxicity and oxidative stress in cancer cells. […] The observed increase in ROS levels could lead to oxidative stress and extensive cell death in the absence of NADPH detoxification.
CRC cells (1 × 10^4) were seeded into a 96-well plate overnight. Cells were treated with test compounds or vehicle (negative control) glucose-free RPMI-1640 medium for 16 h; then, the cells were incubated with 2 mM 2-DG for 10 minutes. Eventually, glucose uptake of cells was measured using Glucose Uptake-Glo Assay (Promega, Madison, WI, USA) according to the manufacturer’s instructions. Luminescence was measured post 2 h of incubation at room temperature using Varioskan Flash multimode reader (Thermo Scientific). Glucose uptake was normalized to the total protein content in the samples using DC protein assay kit (Bio-Rad, Hercules, CA, USA).

The mark [5] stands for this setting: HCT116, higher concentrations, except at doses 1 and 2 µM where induced p-mTOR was observed.

`Cc1cc(=O)oc2cc(Nc3nc(-c4ccc(Br)cc4)cs3)ccc12` [Compound 9b, 7-(4-(4-Bromophenyl)thiazol-2-ylamino)-4-methyl-2H-chromen-2-one]: the IC50 in assay [1] worked out at 530 ± 77 nM. Besides, in assay [1] (Homo sapiens, HCT-116, 72 h), the IC50 is 380 nM. Also, in assay [2] (72 h, Western blot), the “expression of LC3A-II and LC3B-II” value is “induced the expression of LC3A-II and LC3B-II”. In assay [2] (HCT116, 0.5 µM, 72 h, Western blot), the “p-mTOR and p-p70S6K levels” value was “initial increase”. Moreover, in assay [2] (HCT116, 72 h, Western blot), the “AMPK activation through phosphorylation” value is listed as “enhancement of AMPK activation”; the PARP cleavage result is “induced PARP cleavage”; the “expression of β-TrCP and cyclin D” value is “dose-dependent downregulation”; the “protein expression level of Bcl-2” value was “reduced”. For the same molecule, in assay [2] (setting [5]), the “p-mTOR and p-p70S6K levels” value is reported as “decrease”. Moreover, in assay [3], the “activation of caspases (caspase 3/7)” value is “significant”. Further, the glucose uptake entry in assay [4] is listed as “inhibited significantly”.
Take `Cc1cc(=O)oc2cc(Nc3nc(-c4cccc([N+](=O)[O-])c4)cs3)ccc12` [Compound 9f, 4-Methyl-7-(4-(3-Nitrophenyl)thiazol-2-ylamino)-2H-chromen-2-one]: in assay [1], the IC50 is 2560 ± 553 nM. In addition, the IC50 in assay [1] (Homo sapiens, HCT-116, 72 h) was 3960 nM. Also, in assay [2] (72 h, Western blot), the “expression of LC3A-II and LC3B-II” value was “induced the expression of LC3A-II and LC3B-II”. Moreover, in assay [2] (HCT116, 72 h, Western blot), the “AMPK activation through phosphorylation” value is reported as “enhancement of AMPK activation” and the “protein expression level of Bcl-2” value is on record as “reduced”. For the same molecule, in assay [2] (HCT116, high concentrations, 72 h, Western blot), the Akt phosphorylation result was “induced Akt phosphorylation”. In assay [2] (setting [5]), the “p-mTOR and p-p70S6K levels” value was “decrease”. The “activation of caspases (caspase 3/7)” value in assay [3] was “significant”. Besides, in assay [4], the glucose uptake entry was “inhibited significantly”.
